# Results published in patent US20240165097A1, “PHARMACEUTICAL COMPOSITION FOR THE TREATMENT OF ALZHEIMER'S DISEASE OR DEMENTIA” (Heptares Therapeutics Limited, priority 2021, published 2024).
# “Also recorded” adds a separate entry of the source. Read-outs that look alike come from different tables or passages of the source.
# Assay: Example D: HTL0018318 plasma pharmacokinetics
# Assay type: in vivo, human
# Description: Selected plasma pharmacokinetics (PK) parameters for HTL0018318 were estimated during the period over which PD assessments were made. Details of assessment times for all endpoints are described below.
# Pharmacokinetics (PK) were evaluated via blood samples, for determination of HTL0018318 concentrations in plasma. Blood samples were collected during clinic visits before morning dose administration and 1, 2, and 4 hours after dose administration, on Day 1, Day 6, Day 11, Day 16, Day 28, and Day 35 (follow-up visit). Bioanalysis used a fully validated method and all samples were analysed within the established period of storage stability. Validated Phoenix® WinNonlin® Version 6.4 was used to derive PK parameters.
# All safety analyses used the safety set (SAF; randomised dose). The SAF (randomised dose) included all randomised patients who received at least one dose of the study drug; treatment group assignment was based on the initial randomised dose. All efficacy analyses were considered exploratory and used the full analysis set (FAS). The FAS included all randomised patients with at least one post-baseline efficacy measurement; treatment group assignment was based on the initial randomised dose. All summaries and analyses of PK data used the pharmacokinetic set (PKS). The PKS included all randomised patients with valid PK assessments; treatment group assignment was based on actual dose received.
smiles,measurement,setting,value
"CCOC(=O)N1C2CCC1CC(N1CCC3(CC1)CNC(=O)C3)C2 (stereo not drawn) [HTL0018318, ethyl 3-(3-oxo-2,8-diazaspiro[4.5]dec-8-yl)-8-azabicyclo[3.2.1]octane-8-carboxylate]","Ctrough, arithmetic mean ± SD","5 mg, visit day 6",14.2 ± 12.1 ng/mL
same,"Ctrough, arithmetic mean ± SD","5 mg, visit day 11",13.7 ± 10.3 ng/mL
same,"Ctrough, arithmetic mean ± SD","10 mg, visit day 6",7.55 ± 4.72 ng/mL
same,"Ctrough, mean","10 mg, visit day 11, n = 2",5.47 ng/mL
same,"Ctrough, arithmetic mean ± SD","15 mg, visit day 6",19.0 ± 25.7 ng/mL
same,"Ctrough, arithmetic mean ± SD","15 mg, visit day 11",27.9 ± 40.7 ng/mL
same,"Cmax, arithmetic mean ± SD","25 mg, visit day 28",223 ± 134 ng/mL
same,"dose-exposure proportionality (Cmax, AUC0-4 h)",5-25 mg,Dose-exposure proportionality was confirmed; also recorded: increased proportionally across 5-25 mg doses
same,steady-state achieved with daily dosing,any given dose level,5 days
same,AUC(0-t),"human, plasma, 5 mg, visit day 1, read-out: AUC0-4 h, arithmetic mean ± SD",113 ± 57.6 ng·h/mL
same,Cmax,"human, plasma, 5 mg, visit day 1, read-out: Cmax, arithmetic mean ± SD",40.3 ± 24.4 ng/mL
same,AUC(0-t),"human, plasma, 5 mg, visit day 6, read-out: AUC0-4 h, arithmetic mean ± SD",146 ± 53.1 ng·h/mL
same,Cmax,"human, plasma, 5 mg, visit day 6, read-out: Cmax, arithmetic mean ± SD",50.5 ± 15.6 ng/mL
same,AUC(0-t),"human, plasma, 5 mg, visit day 11, read-out: AUC0-4 h, arithmetic mean ± SD",149 ± 70.6 ng·h/mL
same,Cmax,"human, plasma, 5 mg, visit day 11, read-out: Cmax, arithmetic mean ± SD",48.3 ± 19.6 ng/mL
same,AUC(0-t),"human, plasma, 5 mg, visit day 16, read-out: AUC0-4 h, arithmetic mean ± SD",132 ± 56.2 ng·h/mL
same,Cmax,"human, plasma, 5 mg, visit day 16, read-out: Cmax, arithmetic mean ± SD",46.4 ± 18.9 ng/mL
same,AUC(0-t),"human, plasma, 5 mg, visit day 28, read-out: AUC0-4 h, arithmetic mean ± SD",144 ng·h/mL
same,Cmax,"human, plasma, 5 mg, visit day 28, read-out: Cmax, arithmetic mean ± SD",51.8 ng/mL
same,AUC(0-t),"human, plasma, 10 mg, visit day 6, read-out: AUC0-4 h, arithmetic mean ± SD",244 ± 88 ng·h/mL
same,Cmax,"human, plasma, 10 mg, visit day 6, read-out: Cmax, arithmetic mean ± SD",82.4 ± 31.6 ng/mL
same,AUC(0-t),"human, plasma, 10 mg, visit day 11, n = 2, read-out: AUC0-4 h, mean [minimum, maximum]",231 ng·h/mL
same,Cmax,"human, plasma, 10 mg, visit day 11, read-out: Cmax, arithmetic mean ± SD",69.7 ± 33.6 ng/mL
same,AUC(0-t),"human, plasma, 10 mg, visit day 16, n = 1, read-out: AUC0-4 h",302 ng·h/mL
same,Cmax,"human, plasma, 10 mg, visit day 16, n = 1, read-out: Cmax",87.5 ng/mL
same,AUC(0-t),"human, plasma, 10 mg, visit day 28, n = 1, read-out: AUC0-4 h",222 ng·h/mL
same,Cmax,"human, plasma, 10 mg, visit day 28, n = 1, read-out: Cmax",89 ng/mL
same,AUC(0-t),"human, plasma, 15 mg, visit day 6, read-out: AUC0-4 h, arithmetic mean ± SD",315 ± 163 ng·h/mL
same,Cmax,"human, plasma, 15 mg, visit day 6, read-out: Cmax, arithmetic mean ± SD",106 ± 54 ng/mL
same,AUC(0-t),"human, plasma, 15 mg, visit day 11, read-out: AUC0-4 h, arithmetic mean ± SD",379 ± 77.5 ng·h/mL
same,Cmax,"human, plasma, 15 mg, visit day 11, read-out: Cmax, arithmetic mean ± SD",126 ± 29.3 ng/mL
same,AUC(0-t),"human, plasma, 15 mg, visit day 16, read-out: AUC0-4 h, arithmetic mean ± SD",422 ± 94.5 ng·h/mL
same,Cmax,"human, plasma, 15 mg, visit day 16, read-out: Cmax, arithmetic mean ± SD",136 ± 31.4 ng/mL
same,AUC(0-t),"human, plasma, 15 mg, visit day 28, read-out: AUC0-4 h, arithmetic mean ± SD",368 ng·h/mL
same,Cmax,"human, plasma, 15 mg, visit day 28, read-out: Cmax, arithmetic mean ± SD",123 ng/mL
same,AUC(0-t),"human, plasma, 25 mg, visit day 11, read-out: AUC0-4 h, arithmetic mean ± SD",650 ± 302 ng·h/mL
same,Cmax,"human, plasma, 25 mg, visit day 11, read-out: Cmax, arithmetic mean ± SD",222 ± 102 ng/mL
same,AUC(0-t),"human, plasma, 25 mg, visit day 16, read-out: AUC0-4 h, arithmetic mean ± SD",728 ± 359 ng·h/mL
same,Cmax,"human, plasma, 25 mg, visit day 16, read-out: Cmax, arithmetic mean ± SD",243 ± 108 ng/mL
same,AUC(0-t),"human, plasma, 25 mg, visit day 28, read-out: AUC0-4 h, arithmetic mean ± SD",668 ng·h/mL
same,Cmax,"human, plasma, 25 mg, visit day 28, read-out: Cmax, arithmetic mean ± SD",224 ng/mL
same,concentration at 16 day,"human, plasma, 5 mg, visit day 16, read-out: Ctrough, arithmetic mean ± SD",14.1 ± 10.8 ng/mL
same,concentration at 28 day,"human, plasma, 5 mg, visit day 28, read-out: Ctrough, arithmetic mean ± SD",14.2 ± 12.3 ng/mL
same,concentration at 16 day,"human, plasma, 10 mg, visit day 16, n = 1, read-out: Ctrough",8.25 ng/mL
same,concentration at 28 day,"human, plasma, 10 mg, visit day 28, n = 1, read-out: Ctrough",6.41 ng/mL
same,concentration at 16 day,"human, plasma, 15 mg, visit day 16, read-out: Ctrough, arithmetic mean ± SD",29.4 ± 38.5 ng/mL
same,concentration at 28 day,"human, plasma, 15 mg, visit day 28, read-out: Ctrough, arithmetic mean ± SD",23.2 ± 16 ng/mL
same,concentration at 11 day,"human, plasma, 25 mg, visit day 11, read-out: Ctrough, arithmetic mean ± SD",22.2 ± 21.8 ng/mL
same,concentration at 16 day,"human, plasma, 25 mg, visit day 16, read-out: Ctrough, arithmetic mean ± SD",66.7 ± 80.4 ng/mL
same,concentration at 28 day,"human, plasma, 25 mg, visit day 28, read-out: Ctrough, arithmetic mean ± SD",40.3 ± 30.6 ng/mL
same,Tmax,"human, plasma, all doses, read-out: Tmax (median)",1 to 2 h
